Measured values reported in article PMC10961089, “Epidermal growth factor receptor inhibition potentiates chemotherapeutics‐mediated sensitization of metastatic breast cancer stem cells” (Cancer Reports, 2024).

What was measured:
[1] = test system: MDA‐MB‐468; experiment: MTT cytotoxicity assay in MDA-MB-468; assay type: cell-based, human
Experimental: TNBC cell lines (ER^−, PR^−, HER2^−)—MDA‐MB‐231 (ATCC HTB‐26) and MDA‐MB‐468 (ATCC HTB‐132) were procured from ATCC and cultured in Roswell Park Memorial Institute Media (RPMI‐1640) and Dulbecco's Modified Eagle's Medium (DMEM), respectively, supplemented with 10% FBS and 1% Penicillin–Streptomycin solution. Cells were maintained at 5% CO2 at 37°C in a humid atmosphere.[6], [26] The control cell line, Human Embryonic Kidney—HEK‐293 (ATCC CRL‐3216) was also obtained from ATCC and cultured in DMEM.[5], [25]
To evaluate the cytotoxicity profile of the potential EGFR inhibitors (compounds) against TNBC cell lines—MDA‐MB‐231, MDA‐MB‐468, and control cell line HEK293, cells were seeded at a cell density of 5 × 10^3 cells/well in complete medium onto 96‐well plates. Here, the non‐tumoral human embryonic kidney (HEK293) epithelial cells have been utilized as a control cell line to compare the IC50 values of the compounds between cancerous and non‐cancerous cell lines with a big therapeutic window. The use of HEK293 cells as compared to other non‐cancerous cell lines are easy to maintain in culture and the results obtained from HEK293 are highly reproducible and consistent.[27] Briefly, the cells were incubated at 37°C for 12 h to attain morphology. After 12 h, cells were serum starved by replacing the complete media with media containing 2% FBS to synchronize the cells. Post‐12 h of synchronization, cells were treated with an increasing concentration (0.1, 1, 10, 100 μM) of all the compounds (1a, 1b, 1c, 1d, 1e, 1f, 1g, 1h, 1i, 1j, 1k). Separately, TNBC cells were treated with increasing concentration (0.01, 0.1, 1 μM) of Doxorubicin (Sigma‐Aldrich, St Louis, MO, USA) in presence of the selected compounds (1c, 1e, 1g, 1h, 1j, and 1k) at 5 μM concentration or combination of selected compounds (1c, 1e, 1g, 1h, 1j, and 1k) at increasing concentration (1, 2.5, 5, 10 μM) in presence of Doxorubicin (0.01 μM) for 48 h. In addition, the CD24^+‐breast cancer cells and CD24^−/CD44^+‐breast CSC populations, being sorted by Magnetic Activated Cell Sorting (MACS) from MDA‐MB‐231 cells as described previously,[6] were also treated with increasing concentrations of Doxorubicin (0.01–1 μM), in the presence or absence of 1e (10–30 μM), or PD153035 (10 μM) (Sigma‐Aldrich, St Louis, MO, USA). MTT assay was performed to evaluate the cytotoxicity of these compounds against the TNBC cell lines, and the sorted populations as described previously.[6] All the experiments were performed thrice and the IC50 values of the compounds and Doxorubicin were calculated using GraphPad Prism software version 9 (San Diego, CA, USA). Similarly, the percent inhibition of the sorted cell populations by chemotherapeutic drug, doxorubicin in the absence/presence of potent compound 1e or standard EGFR inhibitor, PD153035 was evaluated utilizing GraphPad Prism Version 9 (San Diego, CA, USA).

[2] = test system: CD24^+‐breast cancer cells sorted from MDA‐MB‐231; experiment: MTT assay in sorted breast cancer cells; assay type: cell-based, human; conditions: doxorubicin 0.01 μM + 1e 5 μM vs doxorubicin 0.01 μM alone
Experimental: To evaluate the cytotoxicity profile of the potential EGFR inhibitors (compounds) against TNBC cell lines—MDA‐MB‐231, MDA‐MB‐468, and control cell line HEK293, cells were seeded at a cell density of 5 × 10^3 cells/well in complete medium onto 96‐well plates. Here, the non‐tumoral human embryonic kidney (HEK293) epithelial cells have been utilized as a control cell line to compare the IC50 values of the compounds between cancerous and non‐cancerous cell lines with a big therapeutic window. The use of HEK293 cells as compared to other non‐cancerous cell lines are easy to maintain in culture and the results obtained from HEK293 are highly reproducible and consistent.[27] Briefly, the cells were incubated at 37°C for 12 h to attain morphology. After 12 h, cells were serum starved by replacing the complete media with media containing 2% FBS to synchronize the cells. […] All the experiments were performed thrice and the IC50 values of the compounds and Doxorubicin were calculated using GraphPad Prism software version 9 (San Diego, CA, USA). Similarly, the percent inhibition of the sorted cell populations by chemotherapeutic drug, doxorubicin in the absence/presence of potent compound 1e or standard EGFR inhibitor, PD153035 was evaluated utilizing GraphPad Prism Version 9 (San Diego, CA, USA).

## c1cncc(C(c2c[nH]c3ccccc23)c2c[nH]c3ccccc23)c1 [1e]
[1]; MDA-MB-468, versus Doxorubicin alone
  decrease in the IC50 of Doxorubicin in the presence of the compound: 10 fold
[1]; compound alone, MTT, 48 h, read-out: IC50 (μM) in MDA‐MB‐468 (mean ± SD)
  IC50: 36 ± 5.91 µM
[2]
  increase of percent inhibition of cell proliferation versus doxorubicin alone: 1.8 folds
